The target in test [1] is T1, HLA-DRB1*01:01 (Homo sapiens, UniProt P01903+P01911, A100R/D57E/F55L/F60I/F76Y/I96L/L162R/M171V/P40L/Q125E/R42F/V115G/Y59C).
T1 construct: EBV transformed homozygous cell lines were used as sources of MHC molecules; endogenous in cells; host or cells: EBV transformed homozygous cell lines
The experiment in a line: HLA class II peptide binding, inhibition of radiolabeled peptide binding to purified MHC.

In test [2] the target is T2, HLA-DRB1*04:01 (Homo sapiens, UniProt P01903+P01911, A100K/A169T/F76Y/I96L/K127E/L162R/M171V/N62H/P40V/Q125Y/R42H/S133A/S149N/S66Y/V115G/V209L/W38E).
T2 construct: EBV transformed homozygous cell lines were used as sources of MHC molecules; endogenous in cells; host or cells: EBV transformed homozygous cell lines
The description is as above.

Setting [3] is: citrullinated peptide as listed (X at Cit position), read-out: DRB1*01:01 binding capacity Cit peptide (IC50 nM).
The mark [4] stands for this setting: citrullinated peptide as listed (X at Cit position), read-out: DRB1*04:01 binding capacity Cit peptide (IC50 nM).
The mark [5] stands for this setting: wild-type (unmodified Arg) 15-mer peptide, purified HLA-DRB1*01:01, read-out: DRB1*01:01 binding capacity, WT peptide (IC50 nM).
Where [6] appears, read: wild-type (unmodified Arg) 15-mer peptide, purified HLA-DRB1*04:01, read-out: DRB1*04:01 binding capacity, WT peptide (IC50 nM).
The mark [7] stands for this setting: read-out: DRB1*01:01 binding capacity, WT peptide (IC50 nM).
[8] abbreviates: read-out: DRB1*04:01 binding capacity, WT peptide (IC50 nM).
[9] abbreviates: citrullinated 15-mer (X), purified MHC, inhibition of radiolabeled peptide binding, dash = IC50 >40,000 nM, read-out: DRB1*01:01 binding capacity, Cit peptide (IC50 nM).
[10] abbreviates: citrullinated 15-mer (X), purified MHC, inhibition of radiolabeled peptide binding, dash = IC50 >40,000 nM, read-out: DRB1*04:01 binding capacity, Cit peptide (IC50 nM).
Setting [11] is: citrullinated 15-mer peptide (X = citrulline), purified HLA-DRB1*01:01, read-out: DRB1*01:01 binding capacity, Cit peptide (IC50 nM).
The mark [12] stands for this setting: citrullinated 15-mer peptide (X = citrulline), purified HLA-DRB1*04:01, read-out: DRB1*04:01 binding capacity, Cit peptide (IC50 nM).

Read-outs that look alike come from different tables or passages of the source. Square brackets hold non-standard residues; d marks the D form. Ends that are not written are not given here. Peptide text beside a SMILES is read from it. Cit = NC(=O)NCCC[C@H](N)C(=O)O

For orientation: IC50 means the concentration that inhibits the measured activity by half. Regarding `CC[C@H](C)[C@H](NC(=O)[C@@H](NC(=O)[C@@H](NC(=O)[C@H](CCCCN)NC(=O)CN)[C@@H](C)O)C(C)C)C(=O)N[C@@H](CCC(=O)O)C(=O)N[C@@H](Cc1ccc(O)cc1)C(=O)N[C@@H](CCCNC(N)=O)C(=O)N[C@@H](CO)C(=O)N[C@@H](CCC(N)=O)C(=O)N[C@@H](CCCCN)C(=O)N[C@H](C(=O)N[C@@H](CO)C(=O)N[C@@H](CCCNC(=N)N)C(=O)N[C@@H](CC(C)C)C(=O)O)[C@@H](C)O` [GKTVIEYXSQKTSRL] (H-GKTVIEY[Cit]SQKTSRL-OH), the IC50 in test [1] (setting [3]) was found to be 7.1 nM; in test [1] (value of the wild-type (non-citrullinated) counterpart of the listed peptide, read-out: DRB1*01:01 binding capacity WT peptide (IC50 nM)), 29 nM; in test [2] (setting [4]) it was 153 nM; in test [2] (value of the wild-type (non-citrullinated) counterpart of the listed peptide, read-out: DRB1*04:01 binding capacity WT peptide (IC50 nM)) it was 646 nM.
For the molecule PNFSSLNLRETNLDS [Vimentin 416 WT], the values for the IC50 in test [1] (setting [5]) and in test [2] (setting [6]) were 538 nM and 6480 nM, respectively.
Turning to `CSCC[C@H](NC(=O)[C@H](CCC(N)=O)NC(=O)[C@@H](NC(=O)[C@H](CC(N)=O)NC(=O)[C@H](C)NC(=O)[C@@H](NC(=O)[C@H](CC(N)=O)NC(=O)[C@@H]1CCCN1C(=O)[C@H](C)NC(=O)[C@@H](N)CC(C)C)[C@@H](C)O)C(C)C)C(=O)N[C@H](C(=O)N[C@@H](Cc1ccccc1)C(=O)N[C@@H](CC(C)C)C(=O)N[C@@H](CCCNC(N)=O)C(=O)N[C@@H](CC(C)C)C(=O)O)[C@@H](C)O` [LAPNTANVQMTFLXL] (H-LAPNTANVQMTFL[Cit]L-OH), the IC50 came to 54 nM in test [1] (setting [3]) and 17400 nM in test [2] (setting [4]).
With TNEKVELQELNDRFA [Vimentin 101 WT], the concentration for half-maximal inhibition (IC50) in test [1] (setting [7]) was determined as 5150 nM; in test [2] (setting [8]), 17900 nM.
Turning to PGIDMSAFAGLGPRE [Collagen 1216 WT], the values for the IC50 in test [1] (setting [5]) and in test [2] (setting [6]) were 8.7 nM and 14100 nM, respectively.
As to `CSCC[C@H](NC(=O)[C@H](CCC(=O)O)NC(=O)[C@H](CCC(=O)O)NC(=O)[C@@H](N)CCC(=O)O)C(=O)N[C@@H](CCCNC(N)=O)C(=O)N[C@@H](CCC(=O)O)C(=O)N[C@@H](CC(C)C)C(=O)N[C@@H](CCCNC(=N)N)C(=O)N[C@@H](CCCNC(=N)N)C(=O)N[C@@H](CCC(N)=O)C(=O)N[C@H](C(=O)N[C@@H](CC(=O)O)C(=O)N[C@@H](CCC(N)=O)C(=O)N[C@@H](CC(C)C)C(=O)N[C@H](C(=O)O)[C@@H](C)O)C(C)C` [EEEMXELRRQVDQLT] (H-EEEM[Cit]ELRRQVDQLT-OH), the IC50 in test [1] (setting [9]) was 1250 nM; in test [2] (setting [10]), 6570 nM.
For the molecule DRGDVGEKGPEGAPG [Collagen 766 WT], the IC50 in test [1] (setting [5]) is 729 nM; in test [2] (setting [6]) it was 21600 nM.
In the same order, the values of SAFAGLGPREKGPDP [Collagen 1221 WT] are 50 nM and > 40000 nM.
Consider VDQLTNDKARVEVER [Vimentin 161 WT], for which the results for the IC50 in test [1] (setting [7]) and in test [2] (setting [8]) were 16500 nM and 31600 nM, respectively.
As for `CC[C@H](C)[C@H](NC(=O)[C@H](CCCCN)NC(=O)[C@H](CC(N)=O)NC(=O)[C@H](CCC(N)=O)NC(=O)[C@H](CCC(N)=O)NC(=O)[C@H](CCC(=O)O)NC(=O)[C@H](CC(C)C)NC(=O)[C@H](Cc1ccccc1)NC(=O)[C@H](CCCNC(N)=O)NC(=O)[C@@H](N)C(C)C)C(=O)N[C@@H](CC(C)C)C(=O)N[C@@H](CC(C)C)C(=O)N[C@@H](C)C(=O)N[C@@H](CCC(=O)O)C(=O)N[C@@H](CC(C)C)C(=O)O` [VXFLEQQNKILLAEL], the values for the IC50 in test [1] (setting [9]) and in test [2] (setting [10]) were 7.8 nM and 6590 nM, respectively.
Regarding IDVDVSKPDLTAALR [Vimentin 256 WT], the IC50 in test [1] (setting [7]) is 1490 nM; in test [2] (setting [8]), 21400 nM.
As to `CC(C)C[C@H](NC(=O)[C@H](CCCNC(N)=O)NC(=O)[C@H](C)N)C(=O)N[C@@H](CC(=O)O)C(=O)N[C@@H](CC(C)C)C(=O)N[C@@H](CCC(=O)O)C(=O)N[C@@H](CCCNC(=N)N)C(=O)N[C@@H](CCCCN)C(=O)N[C@H](C(=O)N[C@@H](CCC(=O)O)C(=O)N[C@@H](CO)C(=O)N[C@@H](CC(C)C)C(=O)N[C@@H](CCC(N)=O)C(=O)N[C@@H](CCC(=O)O)C(=O)N[C@@H](CCC(=O)O)C(=O)O)C(C)C` [AXLDLERKVESLQEE] (H-A[Cit]LDLERKVESLQEE-OH), the IC50 in test [1] (setting [9]) amounted to 5290 nM; in test [2] (setting [10]), 9150 nM.
REKLQEEMLQREEAE [Vimentin 186 WT]: the values for the IC50 in test [1] (setting [7]) and in test [2] (setting [8]) were 13800 nM and > 40000 nM, respectively.
Consider `CSCC[C@H](NC(=O)[C@H](CCC(N)=O)NC(=O)[C@@H](NC(=O)[C@H](CC(N)=O)NC(=O)[C@H](C)N)C(C)C)C(=O)N[C@H](C(=O)N[C@@H](Cc1ccccc1)C(=O)N[C@@H](CC(C)C)C(=O)N[C@@H](CCCNC(N)=O)C(=O)N[C@@H](CC(C)C)C(=O)N[C@@H](CC(C)C)C(=O)N[C@@H](CO)C(=O)N[C@H](C(=O)N[C@@H](CCC(=O)O)C(=O)NCC(=O)O)[C@@H](C)O)[C@@H](C)O` [ANVQMTFLXLLSTEG] (H-ANVQMTFL[Cit]LLSTEG-OH), for which the IC50 in test [1] (setting [3]) amounted to 65 nM; in test [2] (setting [4]) it was 1060 nM.
Regarding QDGQRYNDKDVWKPE [Collagen 36 WT], the IC50 in test [1] (setting [5]) and in test [2] (setting [6]) was > 40000 nM in each case.
For the molecule TNLDSLPLVDTHSKR [Vimentin 426 WT], the values for the IC50 in test [1] (setting [5]) and in test [2] (setting [6]) were 904 nM and > 40000 nM, respectively.
In the same order, the values of ERGLKGHRGFTGLQG [Collagen 1126 WT] are 29 nM and > 40000 nM.
`CC(C)C[C@H](NC(=O)[C@H](C)NC(=O)[C@H](C)NC(=O)[C@@H](N)[C@@H](C)O)C(=O)N[C@@H](CCCNC(N)=O)C(=O)N[C@@H](CC(=O)O)C(=O)N[C@H](C(=O)N[C@@H](CCCNC(=N)N)C(=O)N[C@@H](CCC(N)=O)C(=O)N[C@@H](CCC(N)=O)C(=O)N[C@@H](Cc1ccc(O)cc1)C(=O)N[C@@H](CCC(=O)O)C(=O)N[C@@H](CO)C(=O)N[C@H](C(=O)N[C@@H](C)C(=O)O)C(C)C)C(C)C` [TAALXDVRQQYESVA] (H-TAAL[Cit]DVRQQYESVA-OH): the figures for the IC50 in test [1] (setting [9]) and in test [2] (setting [10]) were 956 nM and 8760 nM, respectively.
Regarding `CC(C)C[C@H](NC(=O)[C@H](CO)NC(=O)[C@H](C)NC(=O)[C@H](CC(N)=O)NC(=O)[C@@H](N)CC(=O)O)C(=O)N[C@@H](C)C(=O)N[C@@H](CCCNC(N)=O)C(=O)N[C@@H](CC(C)C)C(=O)N[C@@H](CC(=O)O)C(=O)N[C@@H](CC(C)C)C(=O)N[C@@H](CCC(=O)O)C(=O)N[C@@H](CCCNC(=N)N)C(=O)N[C@@H](CCCCN)C(=O)N[C@H](C(=O)N[C@@H](CCC(=O)O)C(=O)O)C(C)C` [DNASLAXLDLERKVE] (H-DNASLA[Cit]LDLERKVE-OH), the IC50 was 16300 nM in test [1] (setting [9]) and > 40000 nM in test [2] (setting [10]).
As for EEEMRELRRQVDQLT [Vimentin 151 WT], the results for the IC50 in test [1] (setting [7]) and in test [2] (setting [8]) were 468 nM and 4350 nM, respectively.
For `CC(C)C[C@H](NC(=O)[C@H](C)NC(=O)[C@H](CO)NC(=O)CNC(=O)[C@H](CC(C)C)NC(=O)[C@H](CO)NC(=O)[C@H](Cc1ccc(O)cc1)NC(=O)[C@@H](NC(=O)[C@H](CCCNC(=N)N)NC(=O)[C@@H](NC(=O)[C@H](CO)NC(=O)[C@@H](NC(=O)[C@@H](NC(=O)[C@@H](N)C(C)C)[C@@H](C)O)[C@@H](C)O)[C@@H](C)O)[C@@H](C)O)C(=O)N[C@@H](CCCNC(N)=O)C(=O)O` [VTTSTRTYSLGSALX] (H-VTTSTRTYSLGSAL[Cit]-OH), the values for the IC50 in test [1] (setting [9]) and in test [2] (setting [10]) were 9.6 nM and 847 nM, respectively.
TGFPGAAGRVGPPGS [Collagen 896 WT]: the IC50 in test [1] (setting [5]) was 431 nM; in test [2] (setting [6]), > 40000 nM.
As to `CC(C)C[C@H](NC(=O)[C@H](CC(C)C)NC(=O)[C@@H](NC(=O)[C@H](CC(C)C)NC(=O)[C@H](CC(C)C)NC(=O)[C@@H](N)C(C)C)[C@@H](C)O)C(=O)N[C@H](C(=O)N[C@@H](C)C(=O)N[C@@H](C)C(=O)N[C@H](C(=O)N[C@@H](CC(C)C)C(=O)N[C@@H](CCCNC(N)=O)C(=O)N[C@@H](CS)C(=O)N[C@@H](CCC(N)=O)C(=O)NCC(=O)O)C(C)C)C(C)C` [VLLTLLVAAVLXCQG] (H-VLLTLLVAAVL[Cit]CQG-OH), the concentration for half-maximal inhibition (IC50) in test [1] (setting [11]) is 29 nM; in test [2] (setting [12]), > 40000 nM.
In the same order, the values of `CSCC[C@H](NC(=O)[C@H](CCC(=O)O)NC(=O)[C@H](CCC(=O)O)NC(=O)[C@H](CCCCN)NC(=O)[C@H](CCSC)NC(=O)[C@@H](N)CC(N)=O)C(=O)N[C@@H](C)C(=O)N[C@@H](CCCNC(N)=O)C(=O)N[C@@H](Cc1c[nH]cn1)C(=O)N[C@@H](CC(C)C)C(=O)N[C@@H](CCCNC(=N)N)C(=O)N[C@@H](CCC(=O)O)C(=O)N[C@@H](Cc1ccc(O)cc1)C(=O)N[C@@H](CCC(N)=O)C(=O)N[C@@H](CC(=O)O)C(=O)O` [NMKEEMAXHLREYQD] are 5190 nM and > 40000 nM.
